The results in this text go back to patent US4070469A, “Compound for the treatment of bovine mastitis” (priority 1975, dated 1978).

One data set relates to udder. Put plainly: Number of leucocytes (somatic cells) in milk / irritation of the udder. The format is in vivo, cow. Conditions: for number of leucocytes (sematic cells) in milk, 40 hrs.: 40 hrs after 500 mg in 7 ml P.E.G. base; for number of leucocytes (sematic cells) in milk, 48 hrs.: 48 hrs after 500 mg in 7 ml P.E.G. base; for number of leucocytes (sematic cells) in milk, 56 hrs.: 56 hrs after 500 mg in 7 ml P.E.G. base; for number of leucocytes (sematic cells) in milk, before: before administration (baseline). The protocol:
Thereafter 500 mg of each of said compounds in 7 ml of a P.E.G. base and also 7 ml of said base above were administered to several cows and the number of leucocytes (sematic cells) in 10^6 per ml of milk were measured before administration and 40, 48 and 56 hours thereafter. The numbers of leucocytes present indicate the degree of irritation of the udder.

The subject of data set [1] is Strep.uberis and Stap.Aureus. Put plainly: Activity against mastitis bacteria in presence of milk (Table I, summary in words). Format: cell-based. From the text: (§1) The activity of some of said nitrofuryl quinolines derivatives against Strep.uberis and Stap.Aureus in milk has been compared with the activity of some of the compounds so far utilised in the treatment of bovine mastitis. The results are shown in Table I. (The nitrofuryl quinoline derivatives have general formula [drawing 1] the meaning of R, A, R', B, Y, X and Z being given in the Table. R1 =O whenever indicated then the N-oxide is concerned; NF stands for nitrofuryl)

For the next data set, the system named is Strep.uberis. Briefly: Minimal bactericidal activity (MBC) in milk, field isolates. Format: cell-based. Conditions: in milk at pH 7.2 - 7.4; for MBC: Streptococcus uberis.
Source text: as §1
(§2) Minimal Bactericidal/Activity (MBC) of representative Nitrofuryl
(§3) in mcg/ml in milk at pH 7.2 - 7.4. Versus Standards (Field

The test system of the next data set is Staph.Aureus. Described as above. Format: cell-based. The following applies: in milk at pH 7.2 - 7.4; for MBC: Staphylococcus aureus.
Source text: as §1, §2, §3

Data set [2] in a line: Residue of active compound in milk of the cow. Format: in vivo. Conditions: bovine, milk, 500 mg in 7 ml P.E.G. base. The method, then: Said four compounds were then tested for the length of time they could be detected in the milk of the cow. For this purpose 500 mg in 7 ml of a polyethylene glycol (P.E.G.) base of each compound were administered to several cows and the residue of active compound in milk were measured in mcg/ml after 24, 32 and 40 hours respectively.

Where [3] appears, read: field isolate 60B, read-out: Minimal Bactericidal Activity (MBC), Strep.uberis 60B.
The mark [4] stands for this setting: field isolate 127A, read-out: Minimal Bactericidal Activity (MBC), Strep.uberis 127A.
The mark [5] stands for this setting: field isolate 2337, read-out: Minimal Bactericidal Activity (MBC), Staph.Aureus 2337.
The mark [6] stands for this setting: field isolate 2372, read-out: Minimal Bactericidal Activity (MBC), Staph.Aureus 2372.

In brackets after ≈: the same amount, converted by molar mass. Like-named read-outs stand apart in the source and are kept apart here.

The MBC is the lowest tested concentration that kills the bacteria rather than only halting them. Regarding `Cc1cc(-c2ccc([N+](=O)[O-])o2)c2ccc(O)cc2[n+]1[O-]` [Compound 22], in the data set on udder, the “number of leucocytes (sematic cells) in milk, 40 hrs.” value (from here on “number of leucocytes … 40 hrs.”) was 5 10^6 per ml; the “number of leucocytes (sematic cells) in milk, 48 hrs.” value (“number of leucocytes … 48 hrs.” for short) was 5 10^6 per ml; the “number of leucocytes (sematic cells) in milk, 56 hrs.” value (“number of leucocytes … 56 hrs.” for short) is reported as 3.15 10^6 per ml; the “number of leucocytes (sematic cells) in milk, before” value (“number of leucocytes … before” for short) is recorded as 0.28 10^6 per ml. Besides, in data set [1], the “activity in presence of milk (in words)” value is given as “significant activity in milk”. Also, the MBC in the data set with Strep.uberis (setting [3]) amounted to 0.12 µg/mL (≈ 0.419 µM). The MBC in the data set with Strep.uberis (setting [4]) came to 0.5 µg/mL (≈ 1.75 µM). Besides, in the data set on Staph.Aureus (setting [5]), the minimal bactericidal concentration (MBC) was found to be 1 µg/mL (≈ 3.49 µM). Besides, the MBC in the data set on Staph.Aureus (setting [6]) was 0.5 µg/mL (≈ 1.75 µM). Besides, the concentration at 24 h in data set [2] came to 20000 ng/mL.
With `CCOc1ccc2c(-c3ccc([N+](=O)[O-])o3)cc(C(=O)O)[n+]([O-])c2c1` [Compound 26], in the data set with udder, the “number of leucocytes … 40 hrs.” value is recorded as > 7.5 10^6 per ml; the “number of leucocytes … 48 hrs.” value is on record as 3 10^6 per ml; the “number of leucocytes … 56 hrs.” value is 2.65 10^6 per ml; the “number of leucocytes … before” value was 0.22 10^6 per ml. Besides, in data set [1], the “activity in presence of milk (in words)” value is “significant activity in milk”. Further, the MBC with Strep.uberis (setting [3]) was determined as 0.03 µg/mL (≈ 0.0871 µM). Moreover, in the data set on Strep.uberis (setting [4]), the MBC was found to be 1 µg/mL (≈ 2.9 µM). In the data set on Staph.Aureus (setting [5]), the MBC was 1 µg/mL (≈ 2.9 µM). The MBC in the data set on Staph.Aureus (setting [6]) was found to be 1 µg/mL (≈ 2.9 µM). In data set [2], the concentration at 24 h stood at 12000 ng/mL and the concentration at 32 h is 5000 ng/mL.
For the compound `CCc1ccc2nc(CC)cc(-c3ccc([N+](=O)[O-])o3)c2c1` [Compound 31], the minimum bactericidal concentration (MBC) in the data set with Strep.uberis (setting [3]), with Strep.uberis (setting [4]), in the data set on Staph.Aureus (setting [5]) and with Staph.Aureus (setting [6]) was above 10 µg/mL each time.
In the case of `CCc1cc(-c2ccc([N+](=O)[O-])o2)c2cc(C)c(C)cc2[n+]1[O-]` [Compound 40], the MBC stood at 5 µg/mL (≈ 16 µM) with Strep.uberis (setting [3]), 10 µg/mL (≈ 32 µM) in the data set with Strep.uberis (setting [4]), 5 µg/mL (≈ 16 µM) with Staph.Aureus (setting [5]) and 5 µg/mL (≈ 16 µM) with Staph.Aureus (setting [6]).
Take `CC[C@H]1OC(=O)[C@H](C)[C@@H](O[C@H]2C[C@@](C)(OC)[C@@H](O)[C@H](C)O2)[C@H](C)[C@@H](O[C@@H]2O[C@H](C)C[C@H](N(C)C)[C@H]2O)[C@](C)(O)C[C@@H](C)C(=O)[C@H](C)[C@@H](O)[C@]1(C)O` [Erythremycin, reference compound]: the MBC amounted to 0.39 µg/mL (≈ 0.531 µM) with Strep.uberis (setting [3]), 3.12 µg/mL (≈ 4.25 µM) with Strep.uberis (setting [4]), 0.78 µg/mL (≈ 1.06 µM) in the data set with Staph.Aureus (setting [5]) and 6.25 µg/mL (≈ 8.52 µM) with Staph.Aureus (setting [6]).
In the case of `CCOc1ccc2c(-c3ccc([N+](=O)[O-])o3)cc(C(=O)O)nc2c1` [Compound 17], the MBC with Strep.uberis (setting [3]) was 0.03 µg/mL (≈ 0.0914 µM); in the data set on Strep.uberis (setting [4]) it was 1 µg/mL (≈ 3.05 µM); in the data set with Staph.Aureus (setting [5]) it was 1 µg/mL (≈ 3.05 µM); with Staph.Aureus (setting [6]), 0.5 µg/mL (≈ 1.52 µM).
Turning to `CCc1ccc2nc(C)cc(-c3ccc([N+](=O)[O-])o3)c2c1` [Compound 7], the MBC in the data set on Strep.uberis (setting [3]), in the data set on Strep.uberis (setting [4]), with Staph.Aureus (setting [5]) and with Staph.Aureus (setting [6]) was above 10 µg/mL in each case.
As to `CC(=O)OCc1cc(-c2ccc([N+](=O)[O-])o2)c2ccccc2n1` [Compound 33], the minimal bactericidal concentration (MBC) in the data set with Strep.uberis (setting [3]), in the data set on Strep.uberis (setting [4]), with Staph.Aureus (setting [5]) and in the data set on Staph.Aureus (setting [6]) was above 10 µg/mL each time.
As for Necmycin [reference compound], in the data set on Strep.uberis (field isolate 60B), the “Minimal Bactericidal Activity (MBC), Strep.uberis 60B” value came to 200 µg/mL. For the same compound, in the data set on Strep.uberis (field isolate 127A), the “Minimal Bactericidal Activity (MBC), Strep.uberis 127A” value came to 200 µg/mL. For the same compound, in the data set with Staph.Aureus (field isolate 2337), the “Minimal Bactericidal Activity (MBC), Staph.Aureus 2337” value was determined as 12.5 µg/mL. Moreover, in the data set with Staph.Aureus (field isolate 2372), the “Minimal Bactericidal Activity (MBC), Staph.Aureus 2372” value is 12.5 µg/mL.
Regarding `O=[N+]([O-])c1ccc(-c2ccc3ccccc3n2)o1` [Compound 3], the minimum bactericidal concentration (MBC) with Strep.uberis (setting [3]), in the data set on Strep.uberis (setting [4]), in the data set with Staph.Aureus (setting [5]) and with Staph.Aureus (setting [6]) was above 10 µg/mL each time.
In the case of `CO[C@H]1/C=C/O[C@@]2(C)Oc3c(C)c(O)c4c(O)c(cc(O)c4c3C2=O)NC(=O)/C(C)=C\C=C\[C@H](C)[C@H](O)[C@@H](C)[C@@H](O)[C@@H](C)[C@H](OC(C)=O)[C@@H]1C` [Rifamycin, reference compound], the MBC in the data set on Strep.uberis (setting [3]) was 3.12 µg/mL (≈ 4.47 µM); with Strep.uberis (setting [4]), above 50 µg/mL; with Staph.Aureus (setting [5]), 0.12 µg/mL (≈ 0.172 µM); in the data set with Staph.Aureus (setting [6]) it was 0.12 µg/mL (≈ 0.172 µM).
For `CCc1cc(-c2ccc([N+](=O)[O-])o2)c2ccccc2[n+]1[O-]` [Compound 30], the MBC is 5 µg/mL (≈ 17.6 µM) in the data set with Strep.uberis (setting [3]), above 10 µg/mL in the data set with Strep.uberis (setting [4]), 5 µg/mL (≈ 17.6 µM) in the data set on Staph.Aureus (setting [5]) and 10 µg/mL (≈ 35.2 µM) with Staph.Aureus (setting [6]).
In the case of `CC(=O)Oc1ccc2c(-c3ccc([N+](=O)[O-])o3)cc(C)nc2c1` [Compound 8], the MBC in the data set with Strep.uberis (setting [3]) is 0.25 µg/mL (≈ 0.801 µM); with Strep.uberis (setting [4]), 10 µg/mL (≈ 32 µM); in the data set with Staph.Aureus (setting [5]), 5 µg/mL (≈ 16 µM); in the data set on Staph.Aureus (setting [6]), 5 µg/mL (≈ 16 µM).
With `COc1ccc2c(-c3ccc([N+](=O)[O-])o3)cc[n+]([O-])c2c1` [Compound 19], in the data set with udder, the “number of leucocytes … 40 hrs.” value was 5 10^6 per ml; the “number of leucocytes … 48 hrs.” value is on record as 3 10^6 per ml; the “number of leucocytes … 56 hrs.” value is 2 10^6 per ml; the “number of leucocytes … before” value is recorded as 0.60 10^6 per ml. Further, in data set [1], the “activity in presence of milk (in words)” value is listed as “significant activity in milk”. Besides, the MBC in the data set with Strep.uberis (setting [3]) stood at 0.12 µg/mL (≈ 0.419 µM). In the data set on Strep.uberis (setting [4]), the MBC is 0.5 µg/mL (≈ 1.75 µM). Further, the minimal bactericidal concentration (MBC) in the data set on Staph.Aureus (setting [5]) was found to be 0.5 µg/mL (≈ 1.75 µM). The MBC with Staph.Aureus (setting [6]) is 0.5 µg/mL (≈ 1.75 µM). In data set [2], this compound gave a concentration at 24 h of 26500 ng/mL and a concentration at 32 h of 5000 ng/mL.
On to `Cc1ccc2c(c1)c(-c1ccc([N+](=O)[O-])o1)cc(C)[n+]2[O-]` [Compound 29], for which the MBC in the data set on Strep.uberis (setting [3]), with Strep.uberis (setting [4]), with Staph.Aureus (setting [5]) and in the data set on Staph.Aureus (setting [6]) was 5 µg/mL (≈ 17.6 µM) throughout.
